# Measured values: US10908171B2, “Additive channels” (Emulate Inc., priority 2016, dated 2021)
# Entries after “also recorded” stand apart in the source; their conditions may differ. Where a name gives a salt, the structure may show the parent alone. Positions of bridges follow the written chain, without caps; N, C: chain ends. Non-standard residues stand in square brackets, D forms with d. Residues, ends and D or L forms follow the SMILES beside them. hArg = N=C(N)NCCCC[C@H](N)C(=O)O; Mpa = O=C(O)CCS
# Columns and labels:
# platelets = assay: Vessel-On-Chip platelet coverage / aggregation, fluorescence imaging of CD41-labelled platelets in perfused re-calcified blood; type: cell-based, human; details: for platelet coverage: endothelial pre-treatment TNF-α 50 ng/ml 6 hours, or blood with sCollagen 10 μg/ml, vs blood alone; for platelet aggregate formation / platelet coverage: hu5C8 240 μg/ml, sCD40L 10 ng/ml, alone or combined, 60 μl/minute, compared to untreated blood
# Protocol: (§1) Briefly, human blood was drawn in citrate buffer and used within 4 hours. Platelets were stained using fluorescently labeled non-blocking antibodies for the platelet surface marker CD41 and low dosages of fluorescent fibrinogen were added in order to visualize fibrin deposition. Blood was re-calcified in order to re-establish the full coagulation potential, then introduced in the biomimetic vessel-on-chip from the main inlet (embodiments of inlets shown in FIG. 18A-1, FIG. 18A-2 and FIG. 19C). The outlet of the chip was connected to a pulling syringe pump with a system of tubing and connectors made of medical grade silicon that excludes any metal components or potential causes of platelet activation (FIG. 5A).
# After 14 minutes of perfusion, the flow was interrupted and the chips were immediately imaged via fluorescence microscopy (FIG. 18C and FIG. 19D). In healthy conditions, endothelial cells will provide an antithrombotic surface where blood can flow smoothly, and indeed we detected minimal platelet adhesion or fibrin deposition in our vessel-on-chip after blood perfusion in control conditions, FIG. 18C, Blood.
# Experiments with Blood: Blood Samples And Endothelium: Citrated human blood (Research Blood Components, Cambridge, Mass.) was used within 4 hours of a blood draw in order to minimize pre-analytical effects on platelet function. Before every experiment, each one of the endothelialized channels (i.e. microchannels having an endothelial cell layer) was inspected via light microscopy. Samples showing any sign of discontinuity in the endothelium were discarded. […] USA) was at room temperature for 20 minutes.
# Platelets: Platelets were labeled with human CD41-PE antibody (10 μL/ml, Invitrogen) directly added to the blood and incubated at room temperature for 5 minutes.
# (§2) Adding Blood to a Vessel-On-Chip And Flow Conditions: A medical grade plastic reservoir was mounted on the chip, then 800 μl of the blood sample was pipetted into the reservoir. The chip was perfused with the blood by withdrawing it at a rate of 60 μl/minute using a syringe pump. The citrated blood was re-calcified 2 minutes after the beginning of each experiment by adding 100 μl/ml of a solution containing 100 mM calcium chloride and 75 mM magnesium chloride to the blood to permit calcium- and magnesium-dependent platelet function and coagulation.
# (§3) Fluorescence Image analysis: Chips perfused with blood samples were immediately imaged via fluorescence microscopy (Olympus IX83, 10× objective UPLFLN10X2, Orca-Flash 4.0 CMOS Camera). Each chamber was inspected along its entire length and 5 images (about 0.25 cm) were captured from the central area of the chamber. Image processing and quantification was performed with an automatic macro compiled in ImageJ and numerical values corresponding to platelet coverage or fibrin florescence were collected and statistically analyzed in Graphpad Prism V7.
# (§4) Platelet Coverage: A percentage of signal coverage (or Platelet coverage) was computed from the binary image as the ratio of bright pixels to the total number of pixels in the image. Image processing and quantification was performed with an automatic macro compiled in ImageJ in order to ensure unbiased signal measurements. Numerical values corresponding to platelet coverage or fibrin fluorescence (signal intensity) were collected and statistically analyzed in Graphpad Prism V7.
# [1] = test system: thrombin anti-thrombin complex (TAT); assay: Thrombin anti-thrombin (TAT) ELISA in plasma of chip effluent; type: cell-based, human; details: for levels of TAT: plasma from blood flowing out of the chip, vs untreated blood
# Protocol: Thrombin converts fibrinogen into fibrin during clot formation, and anti-thrombin plays a role in maintaining homeostasis by inhibiting the effect of thrombin. Formation of TAT in the microdevice confirms that local and intrinsic generation of thrombin, a potent platelet agonist, occurs in the model and that counter regulatory mechanisms for coagulation are retained. Thus, blood sampled from the Vessel-On-Chip was analyzed for thrombin anti-thrombin complex (TAT), an accepted clinical biomarker for procoagulation^48,49. TAT refers to a factor released upon activation of the coagulation cascade and one of the biomarkers associated with thrombotic events occurring in patients affected with deep vein thrombosis (DVT) or Systemic lupus erythematosus (SLE)^45,46. An enzyme-linked immunosorbent assay (ELISA) was used to quantify the thrombin anti-thrombin complex (TAT).
# Thrombin-Anti Thrombin (TAT) Measurement via ELISA: Thrombin Anti-Thrombin (TAT) levels were analyzed in plasma from blood flowing out of the chip device by removing a sample from the outflow port. Thus TAT levels were evaluated in sample effluents collected from the outflow port of the chip using the Human TAT ELISA Kit (Siemens Healthineers) according to the user manual.
# Blood sampled from the Vessel-On-Chip outflow port was analyzed for thrombin anti-thrombin complex (TAT), a factor released upon activation of the coagulation cascade and one of the biomarkers associated with thrombotic events occurring in patients affected with deep vein thrombosis (DVT) or SLE^45,46. TAT is an accepted clinical biomarker for procoagulation^48,49. An enzyme-linked immunosorbent assay (ELISA) was used to quantify the thrombin anti-thrombin complex (TAT).
# fibrin = assay: Vessel-On-Chip fibrin deposition, fluorescent fibrinogen imaging; type: cell-based, human; details: for fibrin signal intensity: endothelial pre-treatment TNF-α 50 ng/ml 6 hours, or blood with sCollagen 10 μg/ml, vs blood alone; for fibrin deposition on the endothelium: hu5C8 240 μg/ml, sCD40L 10 ng/ml, alone or combined, compared to untreated blood
# Protocol: as §1, §2
# Visualizing Fibrin Deposition: When analyzing the formation of fibrin, 10 μg/ml of fluorescently labeled fibrinogen (Alexa 488, Invitrogen) was also added to the blood. While fluorescent fibrinogen was barely detected as a diffused fluorescence, fibrin deposition on inflamed cells and sparse clots was easily distinguished since fibrin formed filamentous structures produce a signal intensity that is clearly observed above a background threshold.
# as §3, §4
# re-calcified blood = assay: On-chip anticoagulation of outflowing blood through the anticoagulant port; design: species or system human; details: introduced through the anticoagulant port; vs chips without anticoagulant port
# Source text: In order to functionally test the system, re-calcified blood was perfused through the inlet while anticoagulant, e.g. citrate buffer, was introduced online from the port situated next to the outflow port. Thus, blood obtained from the effluent of chips equipped with the anticoagulant port or without anticoagulant port were compared (FIG. 6). From a qualitative point of view the difference was striking.
# In order to functionally test the additive channel (i.e. microfluidic chamber(s)) attached to the outflow port of a Vessel-On-Chip, re-calcified blood was perfused through the inlet port while citrate was introduced online from a port situated next to the outflow port, flowing through the additive channel. Thus, blood obtained from the effluent of chips equipped with the anticoagulant port (additive channel) or without anticoagulant port were compared (FIG. 6). From a qualitative point of view the difference was striking.
# ICAM1 = ICAM1 immunostaining of endothelium; type: cell-based, human; details: TNF-α stimulated vs control
# Protocol: ICAM1 is shown with examples identified by white arrows. One example of a DAPI stained nuclei is shown inside of a white circle.
# TNF-alpha Stimulation: In some experiment endothelial cells were stimulate with 50 ng/ml of TNF (Sigma) for 6 hours in order to induce vascular inflammation before blood perfusion.
# FcγRIIa = assay: hu5C8-mediated thrombosis on-chip, FcγRIIa dependence (platelet coverage, fibrin deposition, TAT); type: cell-based, human; details: with sCD40L, IV.3 1 μg/ml block or IgG2σ variant in place of hu5C8
# Source text: Recent studies conducted on humanized mice expressing the human Fcγ receptors (FCGR2A) have shown that this receptor plays a role in thrombosis leading to the IC-mediated toxicity^12,16,21. […] In order to investigate if the IC5c8-induced thrombosis that we observed in our vessel-on-chip system also relies on an Fc-mediated mechanism, we used two different tool molecules: IgG2σ and IV.3 (FIG. 25A). The IgG2σ variant of hu5C8 has an engineered Fc region^48 that eliminates affinity for the FcγRIIa, while the monoclonal antibody IV.3 is a blocking antibody binding to FcγIIa. Briefly, equimolar concentrations of IgG2σ […] hu5c8 were incubated with […] sCD40L for 20 minutes to form ICIgG2σ or IC5c8, respectively.
# Some of the blood samples were treated with IV.3 (1 μg/ml) for 10 minutes to block the FcγRIIa, and then incubated for 20 more minutes with IC5c8. Finally, blood alone (control) or blood incubated with IC5c8, ICIgG2σ or IV.3 was perfused through the biomimetic microfluidic-on-chip for about 10 minutes. We tested 15 donors and all the tested conditions described above were tested in duplicates and analyzed as percentage of platelet coverage based on fluorescence microscopic imaging (FIG. 25B). Five of the donors were also tested for fibrin deposition (FIG. 25C). Finally, effluents plasma obtained from a total of 7 of the donors (including the 5 mentioned before) were used to assess TAT via ELISA (FIG. 25D). […]
# Blood from several human donors were aliquoted into groups for the following treatments: controls (PBS), sCD40L, combined hu5C8/sCD40L, combined hu5C8 (IgG2σ/sCD40L combined, and combined hu5C8/sCD40L/IV.3. Each condition was tested with a minimum of 3 donors to a maximum of 15 donors, and all conditions were tested in duplicates and analyzed for platelet coverage (FIG. 25B), fibrin deposition (FIG. 25C), or increased formation of TAT measured in the eluates (FIG. 25D). Platelet coverage and fibrin deposition following treatment were normalized and reported as fold-increase over untreated control values for each donor.
# [2] = lupus and/or Crohn's disease; cited from earlier work
# [3] = Eptifibatide 2 μg/ml, endothelium inflamed with TNF-α, n=4
molecule,measurement,setting,value
N=C(N)NCCCC[C@@H]1NC(=O)CCSSC[C@@H](C(N)=O)NC(=O)[C@@H]2CCCN2C(=O)[C@H](Cc2c[nH]c3ccccc23)NC(=O)[C@H](CC(=O)O)NC(=O)CNC1=O [Eptifibatide] ([Mpa][hArg]GDWPC-NH2; disulfide 1-7),platelet aggregation,platelets; [3],significantly inhibited
same,inhibitory effect on platelet aggregation and fibrin clot formation,"platelets; Eptifibatide 2 μg/ml, following treatment with sCollagen, n=4",comparatively modest
same,platelet adhesion (image analysis),"platelets; Eptifibatide 2 μg/ml, samples treated with TNF-α, n=4",completely inhibited
same,"platelet coverage in stimulated, pro-thrombotic conditions","platelets; FIG. 18E-1, TNF-α or sCollagen with Eptifibatide, n=4 donors",suppressed
same,TAT increment associated with TNF-α-induced inflammation,[1]; Eptifibatide treatment,did not inhibit
same,TAT increment due to sCollagen treatment,[1]; Eptifibatide treatment,entirely suppressed
same,fibrin clot formation,fibrin; [3],significantly inhibited
same,fibrin signal (image analysis),"fibrin; Eptifibatide 2 μg/ml, samples treated with TNF-α",a significant amount of fibrin signal was still detectable
same,"fibrin deposition in stimulated, pro-thrombotic conditions","fibrin; FIG. 18E-2, TNF-α or sCollagen with Eptifibatide, n=4 donors",suppressed
O=C(O)CC(O)(CC(=O)O)C(=O)O [sodium citrate],state of blood collected from the effluent,re-calcified blood,soluble (not clotted) blood
TNF-α,platelet coverage,platelets,increased areas of platelet coverage
same,levels of TAT,[1],significantly increased; also recorded: elevated levels of TAT
same,expression of ICAM1 in the endothelium,ICAM1,increased expression; also recorded: higher
same,fibrin signal intensity,fibrin,increased
hu5C8 (IgG2σ): IgG2σ variant of hu5C8 with an engineered Fc region that eliminates affinity for FcγRIIa,"hu5C8-mediated thrombosis on-chip (platelet coverage, fibrin deposition, TAT)",FcγRIIa,did not show signs of thrombosis in any of the endpoints
same,"hu5C8-mediated thrombosis on-chip (platelet coverage, fibrin deposition, TAT)",FcγRIIa; listed as IgG2σ,suppressed
same,"hu5C8-mediated thrombosis on-chip (platelet coverage, fibrin deposition, TAT)",FcγRIIa; listed as hu5C8-IgG2σ,not detected
"hu5C8: humanized monoclonal IgG1 antibody against CD40L, alternatively named anti-CD154",platelet aggregate formation / platelet coverage,platelets,no significant treatment-related effects
same,thromboembolism and cardiovascular events during clinical trials,[2],multiple incidents of thromboembolism and cardiovascular events
same,fibrin deposition on the endothelium,fibrin,no significant treatment-related effects
"sCollagen: soluble collagen (Soluble Calf Skin, Type I), a standard platelet activator",platelet coverage,platelets,increased areas of platelet coverage
same,levels of TAT,[1],minimally increased; also recorded: elevated levels of TAT
same,fibrin signal intensity,fibrin,increased
"sCD40L: soluble CD40 ligand (CD154); recombinant human sCD40 Ligand (protein, UniProt P29965 47-261, looked up, extracellular domain) extracellular domain: HRRLDKIEDERNLHEDFVFMKTIQRCNTGERSLSLLNCEEIKSQFEGFVKDIMLNKEETKKENSFEMQKGDQNPQIAAHVISEASSKTTSVLQWAEKGYYTMSNNLVTLENGKQLTVKRQGLYYIYAQVTFCSNREASSQAPFIASLCLKSPGRFERILLRAANTHSSAKPCGQQSIHLGGVFELQPGASVFVNVTDPSQVSHGTGFTSFGLLKL",increase in platelet coverage in some donors,platelets; fold-increase over untreated control,about 2 fold
same,platelet aggregate formation / platelet coverage,platelets,no significant treatment-related effects; also recorded: not statistically significant
same,fibrin deposition on the endothelium,fibrin,no significant treatment-related effects
